Assay results published in patent publication US11993599B2, “Therapeutic compounds” (Genentech, Inc., priority 2021, dated 2024).

Columns and labels:
Format in all cases: cell-based
BRG1 = target: T1, BRG1 (Homo sapiens, UniProt P51532); test: Immunofluorescence assay for BRG1 degradation in SW1573 cells; settings: 20 hours incubation; for DC50: immunofluorescence mean nuclear signal, read-out: BRG1 IF Degradation IC50; for Dmax: SW1573, 20 h, normalized to a known degrader control, read-out: BRG1 IF Degradation Sinf (%)
T1 construct: either BRM primary antibody (Cell signaling Cat #11966) or BRG primary antibody (Abcam, ab 110641); endogenous in cells; host or cells: SW1573
T1 sequence (P51532 whole entry): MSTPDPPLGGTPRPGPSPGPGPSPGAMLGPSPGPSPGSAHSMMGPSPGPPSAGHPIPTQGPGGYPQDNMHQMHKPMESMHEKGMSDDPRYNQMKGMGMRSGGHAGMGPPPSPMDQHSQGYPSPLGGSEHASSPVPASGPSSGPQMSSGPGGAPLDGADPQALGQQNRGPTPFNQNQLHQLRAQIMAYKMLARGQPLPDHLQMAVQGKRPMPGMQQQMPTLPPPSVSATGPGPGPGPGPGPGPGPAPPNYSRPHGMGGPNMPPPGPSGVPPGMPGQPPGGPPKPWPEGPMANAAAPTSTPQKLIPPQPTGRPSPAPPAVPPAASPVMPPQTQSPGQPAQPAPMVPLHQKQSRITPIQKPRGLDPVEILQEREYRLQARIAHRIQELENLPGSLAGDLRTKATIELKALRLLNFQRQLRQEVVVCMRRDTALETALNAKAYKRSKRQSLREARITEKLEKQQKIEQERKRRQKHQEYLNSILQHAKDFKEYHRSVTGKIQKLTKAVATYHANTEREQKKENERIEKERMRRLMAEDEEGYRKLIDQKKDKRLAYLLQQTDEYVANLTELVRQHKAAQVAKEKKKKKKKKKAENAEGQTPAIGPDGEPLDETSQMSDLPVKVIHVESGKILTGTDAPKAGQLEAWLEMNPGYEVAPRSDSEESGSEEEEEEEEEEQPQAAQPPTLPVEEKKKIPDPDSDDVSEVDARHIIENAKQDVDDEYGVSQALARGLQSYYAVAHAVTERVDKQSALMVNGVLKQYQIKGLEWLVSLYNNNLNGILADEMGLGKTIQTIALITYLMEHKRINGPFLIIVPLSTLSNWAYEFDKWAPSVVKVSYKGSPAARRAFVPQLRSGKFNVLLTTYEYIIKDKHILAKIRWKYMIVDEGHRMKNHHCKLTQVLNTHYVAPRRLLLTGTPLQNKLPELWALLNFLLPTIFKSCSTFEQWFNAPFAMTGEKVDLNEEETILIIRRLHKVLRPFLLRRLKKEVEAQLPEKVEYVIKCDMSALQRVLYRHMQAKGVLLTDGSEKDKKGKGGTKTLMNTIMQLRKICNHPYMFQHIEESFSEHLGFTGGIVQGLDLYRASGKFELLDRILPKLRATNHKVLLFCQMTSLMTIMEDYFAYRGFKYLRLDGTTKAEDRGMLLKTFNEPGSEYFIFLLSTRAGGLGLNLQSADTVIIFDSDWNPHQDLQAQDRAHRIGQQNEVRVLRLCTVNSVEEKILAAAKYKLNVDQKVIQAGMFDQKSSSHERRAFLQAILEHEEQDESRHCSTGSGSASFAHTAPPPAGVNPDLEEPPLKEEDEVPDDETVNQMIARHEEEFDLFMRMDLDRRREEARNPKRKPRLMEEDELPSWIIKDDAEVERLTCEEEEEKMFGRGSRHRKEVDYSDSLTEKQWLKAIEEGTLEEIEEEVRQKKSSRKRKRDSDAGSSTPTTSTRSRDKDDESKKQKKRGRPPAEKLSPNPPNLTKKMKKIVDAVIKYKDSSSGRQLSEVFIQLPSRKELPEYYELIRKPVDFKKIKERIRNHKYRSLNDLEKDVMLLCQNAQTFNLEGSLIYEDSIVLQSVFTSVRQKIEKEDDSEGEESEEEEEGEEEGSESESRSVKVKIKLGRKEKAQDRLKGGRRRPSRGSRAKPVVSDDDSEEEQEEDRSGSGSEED
Method in brief: (§1)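 After a 20 h incubation with test compound, SW1573 cells are fixed and stained for BRM or BRG1 plus Hoechst. Per-cell mean nuclear intensity, referenced to a degrader control, is fit concentration-dependently with unconstrained maximum for Dmax.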

BRM [1] = target: T2, BRM (Homo sapiens, UniProt P51531); test: HiBIT nanoluciferase complementation screen for BRM degraders; settings: 18 hours, BRM-HiBIT KI Hela cells, luminescence normalized: DMSO only = 0%, no cells = −100%; for Median HiBiT activity 1 μM: compound 1 μM; for Median HiBiT activity 10 μM: compound 10 μM
T2 sequence (P51531 whole entry): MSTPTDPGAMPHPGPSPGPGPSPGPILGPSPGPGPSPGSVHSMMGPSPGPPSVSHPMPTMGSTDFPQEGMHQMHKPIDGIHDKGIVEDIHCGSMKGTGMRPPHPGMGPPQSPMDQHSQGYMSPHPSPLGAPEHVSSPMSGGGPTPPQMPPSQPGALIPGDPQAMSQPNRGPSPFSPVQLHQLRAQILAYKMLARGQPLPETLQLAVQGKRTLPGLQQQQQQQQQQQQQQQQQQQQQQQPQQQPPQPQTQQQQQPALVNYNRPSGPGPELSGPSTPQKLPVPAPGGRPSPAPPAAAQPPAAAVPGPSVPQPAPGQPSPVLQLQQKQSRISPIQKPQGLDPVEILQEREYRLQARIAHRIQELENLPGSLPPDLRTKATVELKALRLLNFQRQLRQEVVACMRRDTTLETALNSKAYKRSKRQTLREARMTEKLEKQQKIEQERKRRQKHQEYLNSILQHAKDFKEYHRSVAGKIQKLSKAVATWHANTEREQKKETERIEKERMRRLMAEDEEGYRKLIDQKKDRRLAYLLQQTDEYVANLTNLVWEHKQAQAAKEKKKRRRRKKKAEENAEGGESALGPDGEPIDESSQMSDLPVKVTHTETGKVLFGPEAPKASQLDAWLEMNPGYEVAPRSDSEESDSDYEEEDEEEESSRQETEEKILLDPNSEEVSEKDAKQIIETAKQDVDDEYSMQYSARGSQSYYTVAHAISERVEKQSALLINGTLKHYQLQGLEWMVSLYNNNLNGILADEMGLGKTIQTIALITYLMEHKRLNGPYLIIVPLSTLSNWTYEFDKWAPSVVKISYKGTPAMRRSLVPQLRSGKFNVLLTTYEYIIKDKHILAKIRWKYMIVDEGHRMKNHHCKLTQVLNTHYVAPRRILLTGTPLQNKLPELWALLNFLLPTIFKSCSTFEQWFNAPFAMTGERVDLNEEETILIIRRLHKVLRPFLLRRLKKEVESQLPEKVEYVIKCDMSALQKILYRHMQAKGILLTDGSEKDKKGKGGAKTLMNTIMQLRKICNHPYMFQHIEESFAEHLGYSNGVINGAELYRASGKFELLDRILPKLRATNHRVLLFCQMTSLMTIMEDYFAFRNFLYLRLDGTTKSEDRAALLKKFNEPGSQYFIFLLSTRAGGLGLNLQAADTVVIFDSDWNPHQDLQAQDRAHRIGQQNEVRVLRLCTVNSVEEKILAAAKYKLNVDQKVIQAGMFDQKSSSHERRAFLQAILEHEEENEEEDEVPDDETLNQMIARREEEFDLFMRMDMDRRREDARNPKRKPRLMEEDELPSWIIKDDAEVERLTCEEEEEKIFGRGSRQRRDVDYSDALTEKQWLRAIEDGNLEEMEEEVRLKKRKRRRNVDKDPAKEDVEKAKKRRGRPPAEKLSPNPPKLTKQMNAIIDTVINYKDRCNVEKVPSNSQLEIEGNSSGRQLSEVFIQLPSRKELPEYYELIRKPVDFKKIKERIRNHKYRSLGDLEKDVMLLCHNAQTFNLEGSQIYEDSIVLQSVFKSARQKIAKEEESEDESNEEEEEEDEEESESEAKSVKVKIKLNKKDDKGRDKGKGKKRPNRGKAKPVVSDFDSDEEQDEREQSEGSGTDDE
Text: Example B-1: HiBIT Nanoluciferase Complementation Screen for BRM Degraders
To assess BRM degradation, compounds were screened for their effect of BRM levels using the HiBIT nanoluciferase complementation strategy developed at Promega. In brief, a HELA cell line that was genetically modified via CRISPR/CAS9 was used to fuse the HiBIT sequence at the 3′ end of BRM (BRM-HiBIT KI Hela). BRM protein levels were then detected using the Nano-Glo HiBIT lytic detection reagent (Promega).
The screened compounds were plated into a white 384-well plate at 10 μM and 1 μM in 25 nL DMSO using an Echo dispenser (Labcyte). BRM-HiBIT KI Hela cells were seeded in the compound plate at 5000 cell per well at 25 μl in DMEM growth media (containing 10% FBS, 1% Glutamax (GIBCO cat #31053-028), lx Penicillin-Streptomycin (ROCHE, cat #1107444001), 4.5 g/L D-Glucose, and no phenol red). After incubation with compounds for 18 hours at 37° C., cell viability was assessed by the addition of 5 μl Cell Titer-Fluor reagent (Promega). After 30 s of mixing on an orbital shaker, and 30 minutes incubation at 37° C., fluorescence was measured with an INFINITE F500 (Tecan) (380-400 nm excitation, 505 nm emission). Next, to assess BRM HiBIT levels, 30 μl of Nano-Glo HiBIT lytic detection reagent (Promega) containing 1:50 Nano-Glo HiBIT lytic substrate and 1:100 LgBIT protein per ml of lytic buffer was added. After shaking on an orbital shaker at 350 rpm for 10 minutes, luminescence was measured on the INFINITE F500 (Tecan). To assess compound effects, luminescence signal was normalized with the mean of wells treated with DMSO only set to 0% and the mean of wells containing no cells set to −100%. Note that, in Table 4, the “Compound Number” corresponds to that used in Table 1.

BRM [2] = target: T2, BRM; test: Immunofluorescence assay for BRM degradation in SW1573 cells; design: treated overnight at 4° C. with either BRM primary antibody (Cell signaling Cat #11966) or BRG primary antibody; endogenous in cells; host or cells: SW1573; settings: 20 hours incubation; for DC50: immunofluorescence mean nuclear signal, read-out: BRM IF Degradation IC50; for BRM IF Degradation Sinf (%): normalized to a known degrader control
Method in brief: as §1

CCN(CC)CC#Cc1cc(N2C3CCC2CN(c2cc(-c4ccccc4O)nnc2N)C3)ccn1 [Compound 5, 2-(6-amino-5-(8-(2-(3-(diethylamino)prop-1-yn-1-yl)pyridin-4-yl)-3,8-diazabicyclo[3.2.1]octan-3-yl)pyridazin-3-yl)phenol]
DC50 (BRG1): < 0.01 µM
Dmax (BRG1): 30 to 70%
Median HiBiT activity 1 μM (BRM [1]): −63.6385%
Median HiBiT activity 10 μM (BRM [1]): −31.0597%
DC50 (BRM [2]): < 0.01 µM
BRM IF Degradation Sinf (%) (BRM [2]): E (E indicates −30%-−70%)

Nc1nnc(-c2ccccc2O)cc1N1CC2CCC(C1)N2c1ccnc(C#CC2CCNC2)c1 (centres unmarked) [Compound 25, 2-(6-amino-5-(8-(2-(pyrrolidin-3-ylethynyl)pyridin-4-yl)-3,8-diazabicyclo[3.2.1]octan-3-yl)pyridazin-3-yl)phenol]
DC50 (BRG1): > 0.1 µM
Median HiBiT activity 1 μM (BRM [1]): −26.7344%
Median HiBiT activity 10 μM (BRM [1]): −55.1975%
DC50 (BRM [2]): > 0.1 µM
BRM IF Degradation Sinf (%) (BRM [2]): E (E indicates −30%-−70%)

Nc1nnc(-c2ccccc2O)cc1N1CC2CCC(C1)N2c1ccnc(C#CCN2CCC(N)C2)c1 (centres unmarked) [Compound 15, 2-(6-amino-5-(8-(2-(3-(3-aminopyrrolidin-1-yl)prop-1-yn-1-yl)pyridin-4-yl)-3,8-diazabicyclo[3.2.1]octan-3-yl)pyridazin-3-yl)phenol]
DC50 (BRG1): > 0.1 µM
Dmax (BRG1): 0 to 30%
Median HiBiT activity 1 μM (BRM [1]): −41.5313%
Median HiBiT activity 10 μM (BRM [1]): −55.0083%
DC50 (BRM [2]): > 0.1 µM
BRM IF Degradation Sinf (%) (BRM [2]): E (E indicates −30%-−70%)

Nc1nnc(-c2ccccc2O)cc1N1CC2CCC(C1)N2c1ccnc(C#CC2CNCCO2)c1 (centres unmarked) [Compound 7, 2-(6-amino-5-(8-(2-(morpholin-2-ylethynyl)pyridin-4-yl)-3,8-diazabicyclo[3.2.1]octan-3-yl)pyridazin-3-yl)phenol]
DC50 (BRG1): > 0.1 µM
Median HiBiT activity 1 μM (BRM [1]): −56.5569%
Median HiBiT activity 10 μM (BRM [1]): −25.5864%
DC50 (BRM [2]): < 0.01 µM
BRM IF Degradation Sinf (%) (BRM [2]): E (E indicates −30%-−70%)

Nc1nnc(-c2ccccc2O)cc1N1CC2CCC(C1)N2c1ccnc(C#CCC2CCCN2)c1 (centres unmarked) [Compound 16, 2-(6-amino-5-(8-(2-(3-(pyrrolidin-2-yl)prop-1-yn-1-yl)pyridin-4-yl)-3,8-diazabicyclo[3.2.1]octan-3-yl)pyridazin-3-yl)phenol]
DC50 (BRG1): 0.01 to 0.1 µM
Dmax (BRG1): 0 to 30%
Median HiBiT activity 1 μM (BRM [1]): −38.7074%
Median HiBiT activity 10 μM (BRM [1]): −29.4258%
DC50 (BRM [2]): 0.01 to 0.1 µM
BRM IF Degradation Sinf (%) (BRM [2]): E (E indicates −30%-−70%)

Nc1nnc(-c2ccccc2O)cc1N1CC2CCC(C1)N2c1ccnc(C#CC2CCOCC2)c1 [Compound 22, 2-(6-amino-5-(8-(2-((tetrahydro-2H-pyran-4-yl)ethynyl)pyridin-4-yl)-3,8-diazabicyclo[3.2.1]octan-3-yl)pyridazin-3-yl)phenol]
DC50 (BRG1): > 0.1 µM
Dmax (BRG1): 0 to 30%
Median HiBiT activity 1 μM (BRM [1]): −30.6701%
Median HiBiT activity 10 μM (BRM [1]): −33.6373%
DC50 (BRM [2]): > 0.1 µM

Nc1nnc(-c2ccccc2O)cc1N1CC2CCC(C1)N2c1ccnc(C#CCCO)c1 [Compound 26, 2-(6-amino-5-(8-(2-(4-hydroxybut-1-yn-1-yl)pyridin-4-yl)-3,8-diazabicyclo[3.2.1]octan-3-yl)pyridazin-3-yl)phenol]
DC50 (BRG1): > 0.1 µM
Median HiBiT activity 1 μM (BRM [1]): −25.9348%
Median HiBiT activity 10 μM (BRM [1]): −28.4202%
DC50 (BRM [2]): > 0.1 µM

Nc1nnc(-c2ccccc2O)cc1N1CC2CCC(C1)N2c1ccnc(C#C[C@H]2CC[C@H](N)CC2)c1 [Compound 29, 2-(6-amino-5-(8-(2-(((1r,4r)-4-aminocyclohexyl)ethynyl)pyridin-4-yl)-3,8-diazabicyclo[3.2.1]octan-3-yl)pyridazin-3-yl)phenol]
DC50 (BRG1): > 0.1 µM
Median HiBiT activity 1 μM (BRM [1]): −22.4859%
Median HiBiT activity 10 μM (BRM [1]): −33.4085%
DC50 (BRM [2]): > 0.1 µM

Nc1nnc(-c2ccccc2O)cc1N1CC2CCC(C1)N2c1ccnc(C#CCC2CCCCN2)c1 (centres unmarked) [Compound 13, 2-(6-amino-5-(8-(2-(3-(piperidin-2-yl)prop-1-yn-1-yl)pyridin-4-yl)-3,8-diazabicyclo[3.2.1]octan-3-yl)pyridazin-3-yl)phenol]
DC50 (BRG1): 0.01 to 0.1 µM
Dmax (BRG1): 0 to 30%
Median HiBiT activity 1 μM (BRM [1]): −44.9864%
Median HiBiT activity 10 μM (BRM [1]): −32.1865%
DC50 (BRM [2]): 0.01 to 0.1 µM
BRM IF Degradation Sinf (%) (BRM [2]): E (E indicates −30%-−70%)

Nc1nnc(-c2ccccc2O)cc1N1CC2CCC(C1)N2c1ccnc(C#CCN2CCCC(N)C2)c1 (centres unmarked) [Compound 31, 2-(6-amino-5-(8-(2-(3-(3-aminopiperidin-1-yl)prop-1-yn-1-yl)pyridin-4-yl)-3,8-diazabicyclo[3.2.1]octan-3-yl)pyridazin-3-yl)phenol]
DC50 (BRG1): > 0.1 µM
Median HiBiT activity 1 μM (BRM [1]): −16.7799%
Median HiBiT activity 10 μM (BRM [1]): −47.9900%
DC50 (BRM [2]): > 0.1 µM

NCCCCCCc1cc(N2C3CCC2CN(c2cc(-c4ccccc4O)nnc2N)C3)ccn1 [Compound 20, 2-(6-amino-5-(8-(2-(6-aminohexyl)pyridin-4-yl)-3,8-diazabicyclo[3.2.1]octan-3-yl)pyridazin-3-yl)phenol]
DC50 (BRG1): 0.01 to 0.1 µM
Dmax (BRG1): 71 to 120%
Median HiBiT activity 1 μM (BRM [1]): −33.3403%
Median HiBiT activity 10 μM (BRM [1]): −8.91%
DC50 (BRM [2]): 0.01 to 0.1 µM
BRM IF Degradation Sinf (%) (BRM [2]): F (F indicates −71%-−120%)

NCCCCCCC#Cc1cc(N2C3CCC2CN(c2cc(-c4ccccc4O)nnc2N)C3)ccn1 [Compound 11, 2-(6-amino-5-(8-(2-(8-aminooct-1-yn-1-yl)pyridin-4-yl)-3,8-diazabicyclo[3.2.1]octan-3-yl)pyridazin-3-yl)phenol]
DC50 (BRG1): 0.01 to 0.1 µM
Dmax (BRG1): 30 to 70%
Median HiBiT activity 1 μM (BRM [1]): −46.2503%
Median HiBiT activity 10 μM (BRM [1]): −53.1423%
DC50 (BRM [2]): 0.01 to 0.1 µM
BRM IF Degradation Sinf (%) (BRM [2]): F (F indicates −71%-−120%)

NCCC#Cc1cc(N2C3CCC2CN(c2cc(-c4ccccc4O)nnc2N)C3)ccn1 [Compound 30, 2-(6-amino-5-(8-(2-(4-aminobut-1-yn-1-yl)pyridin-4-yl)-3,8-diazabicyclo[3.2.1]octan-3-yl)pyridazin-3-yl)phenol]
DC50 (BRG1): > 0.1 µM
Dmax (BRG1): 0 to 30%
Median HiBiT activity 1 μM (BRM [1]): −18.8155%
Median HiBiT activity 10 μM (BRM [1]): −47.5549%
DC50 (BRM [2]): > 0.1 µM
BRM IF Degradation Sinf (%) (BRM [2]): E (E indicates −30%-−70%)

C[C@@H](N)C#Cc1cc(N2C3CCC2CN(c2cc(-c4ccccc4O)nnc2N)C3)ccn1 [Compound 23, 2-(6-amino-5-(8-(2-((R)-3-aminobut-1-yn-1-yl)pyridin-4-yl)-3,8-diazabicyclo[3.2.1]octan-3-yl)pyridazin-3-yl)phenol]
DC50 (BRG1): 0.01 to 0.1 µM
Dmax (BRG1): 30 to 70%
Median HiBiT activity 1 μM (BRM [1]): −29.3818%
Median HiBiT activity 10 μM (BRM [1]): −58.9213%
DC50 (BRM [2]): < 0.01 µM
BRM IF Degradation Sinf (%) (BRM [2]): E (E indicates −30%-−70%)

Nc1nnc(-c2ccccc2O)cc1N1CC2CCC(C1)N2c1ccnc(C#CC2CCN2)c1 (centres unmarked) [Compound 17, 2-(6-amino-5-(8-(2-(azetidin-2-ylethynyl)pyridin-4-yl)-3,8-diazabicyclo[3.2.1]octan-3-yl)pyridazin-3-yl)phenol]
DC50 (BRG1): 0.01 to 0.1 µM
Dmax (BRG1): 0 to 30%
Median HiBiT activity 1 μM (BRM [1]): −37.0864%
Median HiBiT activity 10 μM (BRM [1]): −51.9890%
DC50 (BRM [2]): 0.01 to 0.1 µM
BRM IF Degradation Sinf (%) (BRM [2]): E (E indicates −30%-−70%)

Nc1nnc(-c2ccccc2O)cc1N1CC2CCC(C1)N2c1ccnc(C#CCN2CCNCC2=O)c1 [Compound 10, 1-(3-(4-(3-(3-amino-6-(2-hydroxyphenyl)pyridazin-4-yl)-3,8-diazabicyclo[3.2.1]octan-8-yl)pyridin-2-yl)prop-2-yn-1-yl)piperazin-2-one]
DC50 (BRG1): > 0.1 µM
Median HiBiT activity 1 μM (BRM [1]): −50.554%
Median HiBiT activity 10 μM (BRM [1]): −56.7556%
DC50 (BRM [2]): 0.01 to 0.1 µM
BRM IF Degradation Sinf (%) (BRM [2]): E (E indicates −30%-−70%)
